The target of one assay is T1, cdMMP-8 (Homo sapiens, UniProt P22894).
T1 construct: recombinant catalytic domain of human neutrophile Collagenase (cdMMP-8^Met80); made in house; host or cells: E. coli
Nature of the assay: MMP microfluorometric profiling assay (fluorogenic Mca-peptide substrate). Format: biochemical. As for the experimental part:
(§1) The tested MMP enzymes were prepared more specifically in the laboratories of the applicants, with the exception of MMP-1. MMP-1 from human rheumatoid synovial fibroblasts was purchased from Calbiochem-Novabiochem Corporation, LaJolla. Preparation of the recombinant catalytic domain of human Gelatinase A (cdMMP-2): The catalytic domain of Pro-Gelatinase A was prepared using an E. coli expression system according to the method described by Kröger et al^[19]. The proenzyme was activated with 0.5 mM APMA at 37°C prior to use in the assay. […] Preparation of PMNL-Gelatinase (MMP-9): Latent PMNL-pro-Gelatinase was prepared from human plasma buffy coat as described by Tschesche et al^[21]. PMNL-pro-Gelatinase was activated prior to use by incubation with Trypsin at 37°C for 10 min. Inactivation of Trypsin was accomplished with TKI. […] The overexpressed protein was isolated as inclusion bodies and the renatured protein was purified by affinity chromatography with a hydroxamate inhibitor coupled column as described^[22]. Preparation of the recombinant catalytic domain of human Collagenase-3 (cdMMP-13): Human pro-cdMMP-13 was prepared using an E. coli expression system according to the method described^[23]. The isolated pro-cdMMP-13 was activated prior to use by incubation with 5 mM HgCl2 for 2 h at 37°C.
The enzymatic activity was measured using a modified version of a resonance energy transfer fluorogenic assay as described^[26]. […] The fluorescent MCA-group is quenched by resonance energy transfer to the 2,4-dinitrophenyl group. Matrix metalloproteinases cleave this substrate at the Gly-Leu bond. Cleavage results in the loss of energy transfer and a large increase in fluorescence of the MCA group. This substrate is commercially available from Bachem, Switzerland.
Enzyme inhibition assays were carried out in MRB which consisted of 50 mM HEPES/NaOH, pH 7.0, 10 mM CaCl2 and 0,02% (w/v) PEG 8000 at 25°C. MMP microfluorometric profiling assay was done in white U-bottomed 96-well plates (Microfluor 1 White, Dynex, USA) with a final substrate concentration of 6 µM MCA-peptide, approximately 0.3 to 5 nM MMP with variable inhibitor concentrations and 2% DMSO vehicle. From a 1.5 mM stock (100% DMSO) the inhibitors were serially diluted with MRB to 15, 10, 5, 3, 1, 0.6, 0.3, 0.1, 0.05, 0.01 and 0.005 µM final assay concentration. Column 1, rows A through H, contained only DMSO for the "enzyme-only" wells in the assay. […] Each measurement was done in triplicate to ensure statistically significant results. The experiment was further controlled for background fluorescence of the substrate, for fluorescence of fully cleaved substrate and for fluorescence quenching or augmentation from solutions containing the test compounds.
(§2) Datapoints from eight different MMPs generated on the SpectraFluor Plus were directly visualized on a master Excel spreadsheet. The response of inhibition was determinated for each inhibitor concentration by comparing the amount of hydrolysis (fluorescence units generated over 30 minutes of hydrolysis) of wells containing compound with the "enzyme-only" wells in column 1. With the program GraFit (Erithacus Software Limited) a 4 parameter logistic fit to the dose-response data was used to calculate IC50 values for each compound.

The next assay concerns the target cdMMP-2 (Homo sapiens, UniProt P08253). Described as above. Format: biochemical. As to conditions: for percent inhibition: cdMMP-2, @ 15 (µM). Here is the method:
as §1
The enzymatic activity was measured using a modified version of a resonance energy transfer fluorogenic assay as described^[26]. Progress curves were monitored by following the increase in fluorescence at 393 nm (λex = 328 nm), induced by the cleavage of the (7-methoxycoumarin-4-yl)acetyl-Pro-Leu-Gly-Leu-(3-[2,4-dinitro-phenyl]-L-2,3-diamino-propionyl)-Ala-Arg-NH2 (Mca-Pro-Leu-Gly-Leu-Dpa-Ala-Arg-NH2) fluorogenic substrate by MMPs. The fluorescent MCA-group is quenched by resonance energy transfer to the 2,4-dinitrophenyl group. Matrix metalloproteinases cleave this substrate at the Gly-Leu bond. Cleavage results in the loss of energy transfer and a large increase in fluorescence of the MCA group. This substrate is commercially available from Bachem, Switzerland.
Enzyme inhibition assays were carried out in MRB which consisted of 50 mM HEPES/NaOH, pH 7.0, 10 mM CaCl2 and 0,02% (w/v) PEG 8000 at 25°C. MMP microfluorometric profiling assay was done in white U-bottomed 96-well plates (Microfluor 1 White, Dynex, USA) with a final substrate concentration of 6 µM MCA-peptide, approximately 0.3 to 5 nM MMP with variable inhibitor concentrations and 2% DMSO vehicle. From a 1.5 mM stock (100% DMSO) the inhibitors were serially diluted with MRB to 15, 10, 5, 3, 1, 0.6, 0.3, 0.1, 0.05, 0.01 and 0.005 µM final assay concentration. Column 1, rows A through H, contained only DMSO for the "enzyme-only" wells in the assay. After preincubation for 30 min at 25°C the reaction was started by addition of substrate and the plate was read on a SpectraFluor Plus (Tecan, Germany) plate reader with excitation at 330 nm and emission at 405 nm with the gain set to 150. Each measurement was done in triplicate to ensure statistically significant results. The experiment was further controlled for background fluorescence of the substrate, for fluorescence of fully cleaved substrate and for fluorescence quenching or augmentation from solutions containing the test compounds.
as §2

Like-named read-outs stand apart in the source and are kept apart here.

Chain of cdMMP-2 (P08253 110-446): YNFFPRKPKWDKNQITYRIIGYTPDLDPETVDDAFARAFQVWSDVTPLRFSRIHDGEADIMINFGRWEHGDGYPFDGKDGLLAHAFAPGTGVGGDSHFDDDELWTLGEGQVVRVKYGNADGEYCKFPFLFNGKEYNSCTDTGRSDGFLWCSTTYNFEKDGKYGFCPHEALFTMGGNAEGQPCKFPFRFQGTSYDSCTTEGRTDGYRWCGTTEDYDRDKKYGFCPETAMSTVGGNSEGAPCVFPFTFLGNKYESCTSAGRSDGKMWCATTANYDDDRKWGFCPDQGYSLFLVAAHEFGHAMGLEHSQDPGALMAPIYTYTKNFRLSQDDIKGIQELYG
T1 sequence (P22894 100-262 limits assumed): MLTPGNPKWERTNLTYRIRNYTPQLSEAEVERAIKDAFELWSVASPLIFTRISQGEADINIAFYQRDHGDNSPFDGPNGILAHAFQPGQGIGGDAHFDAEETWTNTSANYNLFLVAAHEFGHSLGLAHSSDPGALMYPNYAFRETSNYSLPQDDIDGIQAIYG

In general, IC50 refers to the concentration that inhibits the measured activity by half. `COc1ccc(S(=O)(=O)NCC(=O)NC2=NN=C(c3c(F)c(F)c(F)c(F)c3F)CS2)cc1` [Example 16, 2-{[(4-Methoxyphenyl)sulfonyl]amino}-N-[5-(2,3,4,5,6-pentafluorophenyl)-6H-1,3,4-thiadiazin-2-yl]acetamide]: the results for the IC50 at cdMMP-8 (read-out: cdMMP-8 IC50) and on cdMMP-2 (read-out: cdMMP-2 IC50) were 527 nM and 3930 nM, respectively.

Take `O=C(CC1NC(=O)NC1=O)NC1=NN=C(c2ccc(N3CCCC3)cc2)CS1` (centres unmarked) [Example 26, 2-(2,5-Dioxo-4-imidazolidinyl)-N-{5-[4-(1-pyrrolidinyl)phenyl]-6H-1,3,4-thiadiazin-2-yl}acetamide]: the IC50 at cdMMP-8 (read-out: cdMMP-8 IC50) came out at 1170 nM; on cdMMP-2 (read-out: cdMMP-2 IC50), 890 nM.

In the case of `CC(C)[C@@H](NS(=O)(=O)c1ccccc1)C(=O)NC1=NN=C(c2ccc(Cl)cc2)CS1` [Example 2, (2R)-N-[5-(4-Chlorophenyl)-6H-1,3,4-thiadiazin-2-yl]-3-methyl-2-[(phenylsulfonyl)amino]butanamide], the figures for the IC50 on cdMMP-8 (read-out: cdMMP-8 IC50) and at cdMMP-2 (read-out: cdMMP-2 IC50) were 8630 nM and 1410 nM, respectively.

For `C[C@@H](NS(=O)(=O)c1ccccc1)C(=O)NC1=NN=C(c2ccc(C#N)cc2)CS1` [Example 1, (2R)-N-[5-(4-Cyanophenyl)-6H-1,3,4-thiadiazine-2-yl]-2-[(phenylsulfonyl)amino]-propanamide], the values for the 50% inhibitory concentration (IC50) on cdMMP-8 (read-out: cdMMP-8 IC50) and at cdMMP-2 (read-out: cdMMP-2 IC50) were 468 nM and 353 nM, respectively.

`C[C@H](NS(=O)(=O)c1cccnc1)C(=O)NC1=NN=C(c2ccc(Cl)cc2)CS1` [Example 29, (2S)-N-[5-(4-Chlorophenyl)-6H-1,3,4-thiadiazin-2-yl]-2-[(3-pyridylsulfonyl)-amino]propanamide]: the half-inhibitory concentration (IC50) is 377 nM at cdMMP-8 (read-out: cdMMP-8 IC50) and 354 nM on cdMMP-2 (read-out: cdMMP-2 IC50).

As to `CC(C)[C@H](NS(=O)(=O)c1ccccc1)C(=O)NC1=NN=C(c2ccc(Cl)cc2)CS1` [Example 22, (2S)-N-[5-(4-Chlorophenyl)-6H-1,3,4-thiadiazin-2-yl]-3-methyl-2-[(phenylsulfonyl)amino]butanamide], the IC50 at cdMMP-8 (read-out: cdMMP-8 IC50) came out at 1580 nM; at cdMMP-2 (read-out: cdMMP-2 IC50), 1460 nM.

For `C[C@H](NS(=O)(=O)c1ccccc1)C(=O)NC1=NN=C(c2ccc([N+](=O)[O-])cc2)CS1` [Example 9, (2S)-N-[5-(4-Nitrophenyl)-6H-1,3,4-thiadiazin-2-yl]-2-[(phenylsulfonyl)amino]-propanamide], the IC50 on cdMMP-8 (read-out: cdMMP-8 IC50) worked out at 337 nM; at cdMMP-2 (read-out: cdMMP-2 IC50) it was 495 nM.

With `COc1ccc(S(=O)(=O)N[C@@H](C)C(=O)NC2=NN=C(c3ccc(C)cc3)CS2)cc1` [Example 17, (2S)-2-{[(4-Methoxyphenyl)sulfonyl]amino}-N-[5-(4-methylphenyl)-6H-1,3,4-thiadiazin-2-yl]propanamide], the values for the IC50 on cdMMP-8 (read-out: cdMMP-8 IC50) and on cdMMP-2 (read-out: cdMMP-2 IC50) were 599 nM and 675 nM, respectively.

On to `O=C1C[C@@H](C(=O)NC2=NN=C(c3ccc(Cl)cc3)CS2)NC(=O)N1` [Example 30, (4S)-N-[5-(4-Chlorophenyl)-6H-1,3,4-thiadiazin-2-yl]-2,6-dioxohexahydro-4-pyrimidinecarboxamide], for which the IC50 at cdMMP-8 (read-out: cdMMP-8 IC50) was found to be 692 nM; at cdMMP-2 (read-out: cdMMP-2 IC50) it was 693 nM.

Regarding `C[C@H](NS(=O)(=O)N1CCOCC1)C(=O)NC1=NN=C(c2ccc(Cl)cc2)CS1` [Example 28, (2S)-N-[5-(4-Chlorophenyl)-6H-1,3,4-thiadiazin-2yl-]-2-[(4-morpholinylsulfonyl)amino]propanamide], the IC50 is 296 nM at cdMMP-8 and 662 nM against cdMMP-2.

For `COc1ccc(S(=O)(=O)NCC(=O)NC2=NN=C(c3ccc(Cl)cc3Cl)CS2)cc1` [Example 19, N-[5-(2,4-Dichlorophenyl)-6H-1,3,4-thiadiazin-2-yl]-2-{[(4-methoxyphenyl)-sulfonyl]amino}acetamide], the values for the IC50 on cdMMP-8 (read-out: cdMMP-8 IC50) and at cdMMP-2 (read-out: cdMMP-2 IC50) were 306 nM and 1520 nM, respectively.

With `C[C@H](NS(=O)(=O)c1ccccc1)C(=O)NC1=NN=C(c2ccc(Cl)s2)CS1` [Example 10, (2S)-N-[5-(5-Chloro-2-thienyl)-6H-1,3,4-thiadiazin-2-yl]-2-[(phenylsulfonyl)-amino]propanamide], the figures for the IC50 on cdMMP-8 (read-out: cdMMP-8 IC50) and on cdMMP-2 (read-out: cdMMP-2 IC50) were 371 nM and 3100 nM, respectively.

Regarding `C[C@H](NS(=O)(=O)c1ccccc1)C(=O)NC1=NN=C(c2ccc(Br)cc2)CS1` [Example 6, (2S)-N-[5-(4-Bromophenyl)-6H-1,3,4-thiadiazin-2-yl]-2-[(phenylsulfonyl)amino]-propanamide], the IC50 at cdMMP-8 (read-out: cdMMP-8 IC50) came to 231 nM; at cdMMP-2 (read-out: cdMMP-2 IC50), 455 nM.

Regarding `CC(C)(C)c1ccc(S(=O)(=O)NCC(=O)NC2=NN=C(c3ccc(Cl)cc3Cl)CS2)cc1` [Example 18, 2-{[(4-tert-Butylphenyl)sulfonyl]amino}-N-[5-(2,4-dichlorophenyl)-6H-1,3,4-thiadiazin-2-yl]acetamide], the results for the half-inhibitory concentration (IC50) at cdMMP-8 (read-out: cdMMP-8 IC50) and on cdMMP-2 (read-out: cdMMP-2 IC50) were 492 nM and 2430 nM, respectively.

On to `O=C(CC1NC(=O)NC1=O)NC1=NN=C(c2ccc(C3CCCCC3)cc2)CS1` (centres unmarked) [Example 25, N-[5-(4-Cyclohexylphenyl)-6H-1,3,4-thiadiazin-2-yl]-2-(2,5-dioxo-4-imidazolidinyl)acetamide], for which the percent inhibition at cdMMP-8 (cdMMP-8, @ 15 (µM)) is reported as 56%^a)@ 15; on cdMMP-2, 53%^a)@ 15.

Turning to `C[C@H](NS(=O)(=O)c1ccccc1)C(=O)NC1=NN=C(c2ccc(C#N)cc2)CS1` [Example 3, (2S)-N-[5-(4-Cyanophenyl)-6H-1,3,4-thiadiazin-2-yl]-2-[(phenylsulfonyl)amino]-propanamide], the half-inhibitory concentration (IC50) on cdMMP-8 (read-out: cdMMP-8 IC50) turned out to be 440 nM; on cdMMP-2 (read-out: cdMMP-2 IC50), 390 nM.

In the case of `O=C(CC1NC(=O)NC1=O)NC1=NN=C(c2ccc(Cl)cc2)CS1` (centres unmarked) [Example 23, N-[5-(4-Chlorophenyl)-6H-1,3,4-thiadiazin-2-yl]-2-(2,5-dioxo-4-imidazolidinyl)-acetamide], on cdMMP-8 (read-out: cdMMP-8 IC50), the half-inhibitory concentration (IC50) amounted to 648 nM. Further, on cdMMP-2, the percent inhibition is given as 67%^a)@ 15.

On to `O=C(CC1NC(=O)NC1=O)NC1=NN=C(c2ccc(Br)cc2)CS1` (centres unmarked) [Example 24, N-[5-(4-Bromophenyl)-6H-1,3,4-thiadiazin-2-yl]-2-(2,5-dioxo-4-imidazolidinyl)-acetamide], for which the IC50 was found to be 578 nM on cdMMP-8 (read-out: cdMMP-8 IC50) and 864 nM at cdMMP-2 (read-out: cdMMP-2 IC50).

For `C[C@@H](NS(=O)(=O)c1ccccc1)C(=O)NC1=NN=C(c2ccc(F)cc2)CS1` [Example 14, (2R)-N-[5-(4-Fluorophenyl)-6H-1,3,4-thiadiazin-2-yl]-2-[(phenylsulfonyl)amino]-propanamide], the IC50 at cdMMP-2 (read-out: cdMMP-2 IC50) was 572 nM.

With `COc1ccc(C2=NN=C(NC(=O)[C@H](C)NS(=O)(=O)c3ccccc3)SC2)cc1` [Example 12, (2S)-N-[5-(4-Methoxyphenyl)-6H-1,3,4-thiadiazin-2-yl]-2-[(phenylsulfonyl)-amino]propanamide], at cdMMP-8 (read-out: cdMMP-8 IC50), the IC50 is 354 nM.

Values taken from patent EP1191024A1, “Thiadiazines and their use as inhibitors of metalloproteinases” (Tschesche, Harald, priority 2000, dated 2002).
